What follows are compounds tested against human GLP-1 receptor (Homo sapiens (Human), UniProt P43220). Conditions: read-out: Mean EC50; cAMP, HTRF detection, 30 min at 37° C., HEK-293 cells expressing cloned human GLP-1 receptor.
Chain of human GLP-1 receptor (P43220 24-463): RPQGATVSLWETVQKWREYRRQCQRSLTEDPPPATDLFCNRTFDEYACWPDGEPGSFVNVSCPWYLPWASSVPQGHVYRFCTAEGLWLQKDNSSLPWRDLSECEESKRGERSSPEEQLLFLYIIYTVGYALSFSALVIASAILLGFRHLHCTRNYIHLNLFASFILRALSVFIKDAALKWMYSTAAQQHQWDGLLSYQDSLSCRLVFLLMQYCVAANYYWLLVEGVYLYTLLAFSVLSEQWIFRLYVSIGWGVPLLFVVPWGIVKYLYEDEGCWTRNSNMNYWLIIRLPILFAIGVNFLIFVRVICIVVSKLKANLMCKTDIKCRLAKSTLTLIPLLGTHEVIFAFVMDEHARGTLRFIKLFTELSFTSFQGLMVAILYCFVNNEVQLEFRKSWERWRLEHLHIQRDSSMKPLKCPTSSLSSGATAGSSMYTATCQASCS

Row | SMILES | EC50 [nM]
1 | Cc1ccc(C(=O)N2Cc3cc4c(cc3C[C@H]2C(=O)N[C@@H](Cc2ccc(-c3ccnc(C)c3C)cc2)C(=O)O)OC[C@H](c2ccc(OCc3ccc(Cl)c(Cl)c3)cc2)O4)cc1 [Example 158, (S)-2-{[(3S,8S)-3-[4-(3,4-Dichloro-benzyloxy)-phenyl]-7-(4-methyl-benzoyl)-2,3,6,7,8,9-hexahydro-[1,4]dioxino[2,3-g]isoquinoline-8-carbonyl]-amino}-3-[4-(2,3-dimethyl-pyridin-4-yl)-phenyl]-propionic acid] | 146
2 | CC[C@@H](c1ccccc1)N1Cc2cc3c(cc2C[C@H]1C(=O)N[C@@H](Cc1ccc(-c2ccnc(C)c2C)cc1)C(=O)O)OC[C@H](c1ccc(OCC2CCCC2)cc1)O3 [Example 160, (S)-2-{[(3S,8S)-3-(4-Cyclopentylmethoxy-phenyl)-7-((S)-1-phenyl-propyl)-2,3,6,7,8,9-hexahydro-[1,4]dioxino[2,3-g]isoquinoline-8-carbonyl]-amino}-3-[4-(2,3-dimethyl-pyridin-4-yl)-phenyl]-propionic acid] | 62
3 | CC[C@@H](c1ccccc1)N1Cc2cc3c(cc2C[C@H]1C(=O)N[C@@H](Cc1ccc(-c2ccnc(C)c2C)cc1)C(=O)O)OC[C@H](c1ccc(OC(C)C)cc1)O3 [Example 162, (S)-3-[4-(2,3-Dimethyl-pyridin-4-yl)-phenyl]-2-{[(3S,8S)-3-(4-isopropoxy-phenyl)-7-((S)-1-phenyl-propyl)-2,3,6,7,8,9-hexahydro-[1,4]dioxino[2,3-g]isoquinoline-8-carbonyl]-amino}-propionic acid] | 56
4 | CC[C@@H](c1ccccc1)N1Cc2cc3c(cc2C[C@H]1C(=O)N[C@@H](Cc1ccc(-c2ccnc(C)c2C)cc1)C(=O)O)OC[C@H](c1ccc(OCCN(C)C)cc1)O3 [Example 165, (S)-2-{[(3S,8S)-3-[4-(2-Dimethylamino-ethoxy)-phenyl]-7-((S)-1-phenyl-propyl)-2,3,6,7,8,9-hexahydro-[1,4]dioxino[2,3-g]isoquinoline-8-carbonyl]-amino}-3-[4-(2,3-dimethyl-pyridin-4-yl)-phenyl]-propionic acid] | 396
5 | CC[C@@H](c1ccccc1)N1Cc2cc3c(cc2C[C@H]1C(=O)N[C@@H](Cc1ccc(-c2ccnc(C)c2C)cc1)C(=O)O)OC[C@H](c1ccc(OCCC2CCCC2)cc1)O3 [Example 167, (S)-2-{[(3S,8S)-3-[4-(2-Cyclopentyl-ethoxy)-phenyl]-7-((S)-1-phenyl-propyl)-2,3,6,7,8,9-hexahydro-[1,4]dioxino[2,3-g]isoquinoline-8-carbonyl]-amino}-3-[4-(2,3-dimethyl-pyridin-4-yl)-5 phenyl]-propionic acid] | 174
6 | CC[C@@H](c1ccccc1)N1Cc2cc3c(cc2C[C@H]1C(=O)N[C@@H](Cc1ccc(-c2ccnc(C)c2C)cc1)C(=O)O)OC[C@H](c1ccc(OCCC(C)(C)C)cc1)O3 [Example 168, (S)-2-{[(3S,8S)-3-[4-(3,3-Dimethyl-butoxy)-phenyl]-7-((S)-1-phenyl-propyl)-2,3,6,7,8,9-hexahydro-[1,4]dioxino[2,3-g]isoquinoline-8-carbonyl]-amino}-3-[4-(2,3-dimethyl-pyridin-4-yl)-phenyl]-propionic acid] | 114
7 | CC[C@@H](c1ccccc1)N1Cc2cc3c(cc2C[C@H]1C(=O)N[C@@H](Cc1ccc(-c2ccnc(C)c2C)cc1)C(=O)O)OC[C@H](c1ccc(OCC(C)C)cc1)O3 [Example 172, (S)-3-[4-(2,3-Dimethyl-pyridin-4-yl)-phenyl]-2-{[(3S,8S)-3-(4-isobutoxy-phenyl)-7-((S)-1-phenyl-propyl)-2,3,6,7,8,9-hexahydro-[1,4]dioxino[2,3-g]isoquinoline-8-carbonyl]-amino}-propionic acid] | 132
8 | CC[C@@H](c1ccccc1)N1Cc2cc3c(cc2C[C@H]1C(=O)N[C@@H](Cc1ccc(-c2ccnc(C)c2C)cc1)C(=O)O)OC[C@H](c1ccc(OC2CC4CCC2C4)cc1)O3 (stereo partly drawn) [Example 173, (S)-2-{[(3S,8S)-3-[4-(Bicyclo[2.2.1]hept-2-yloxy)-phenyl]-7-((S)-1-phenyl-propyl)-2,3,6,7,8,9-hexahydro-[1,4]dioxino[2,3-g]isoquinoline-8-carbonyl]-amino}-3-[4-(2,3-dimethyl-pyridin-4-yl)-phenyl]-propionic acid] | 145
9 | Cc1nccc(-c2ccc(C[C@H](NC(=O)[C@@H]3Cc4cc5c(cc4CN3C(=O)OC(C)(C)C)O[C@@H](c3ccc(OCc4ccc(Cl)c(Cl)c4)cc3)CO5)C(=O)O)cc2)c1C [Example 174, (3S,8S)-8-{(S)-1-Carboxy-2-[4-(2,3-dimethyl-pyridin-4-yl)-phenyl]-ethylcarbamoyl}-3-[4-(3,4-dichloro-benzyloxy)-phenyl]-2,3,8,9-tetrahydro-6H-[1,4]dioxino[2,3-g]isoquinoline-7-carboxylic acid tert-butyl ester] | 153
10 | Cc1ccccc1CN1Cc2cc3c(cc2C[C@H]1C(=O)N[C@@H](Cc1ccc(-c2ccnc(C)c2C)cc1)C(=O)O)OC[C@H](c1ccc(OCc2ccc(Cl)c(Cl)c2)cc1)O3 [Example 176, (S)-2-{[(3S,8S)-3-[4-(3,4-Dichloro-benzyloxy)-phenyl]-7-(2-methyl-benzyl)-2,3,6,7,8,9-hexahydro-[1,4]dioxino[2,3-g]isoquinoline-8-carbonyl]-amino}-3-[4-(2,3-dimethyl-pyridin-4-yl)-phenyl]-propionic acid] | 4

Results, then the compound that gave them:

Row | EC50 [nM] | SMILES
11 | 19 | Cc1nccc(-c2ccc(C[C@H](NC(=O)[C@@H]3Cc4cc5c(cc4CN3C(=O)c3ccccc3)O[C@@H](c3ccc(OCc4ccc(Cl)c(Cl)c4)cc3)CO5)C(=O)O)cc2)c1C [Example 159, (S)-2-({(3S,8S)-7-Benzoyl-3-[4-(3,4-dichloro-benzyloxy)-phenyl]-2,3,6,7,8,9-hexahydro-[1,4]dioxino[2,3-g]isoquinoline-8-carbonyl}-amino)-3-[4-(2,3-dimethyl-pyridin-4-yl)-phenyl]-propionic acid]
12 | 117 | CC[C@@H](c1ccccc1)N1Cc2cc3c(cc2C[C@H]1C(=O)N[C@@H](Cc1ccc(-c2ccnc(C)c2C)cc1)C(=O)O)OC[C@H](c1ccc(OC)cc1)O3 [Example 161, (S)-3-[4-(2,3-Dimethyl-pyridin-4-yl)-phenyl]-2-{[(3S,8S)-3-(4-methoxy-phenyl)-7-((S)-1-phenyl-propyl)-2,3,6,7,8,9-hexahydro-[1,4]dioxino[2,3-g]isoquinoline-8-carbonyl]-amino}-propionic acid]
13 | 113 | CC[C@@H](c1ccccc1)N1Cc2cc3c(cc2C[C@H]1C(=O)N[C@@H](Cc1ccc(-c2ccnc(C)c2C)cc1)C(=O)O)OC[C@H](c1ccc(OCC2CCCCC2)cc1)O3 [Example 163, (S)-2-{[(3S,8S)-3-(4-Cyclohexylmethoxy-phenyl)-7-((S)-1-phenyl-propyl)-2,3,6,7,8,9-hexahydro-[1,4]dioxino[2,3-g]isoquinoline-8-carbonyl]-amino}-3-[4-(2,3-dimethyl-pyridin-4-yl)-phenyl]-propionic acid]
14 | 62 | CC[C@@H](c1ccccc1)N1Cc2cc3c(cc2C[C@H]1C(=O)N[C@@H](Cc1ccc(-c2ccnc(C)c2C)cc1)C(=O)O)OC[C@H](c1ccc(OC2CCCCC2)cc1)O3 [Example 164, (S)-2-{[(3S,8S)-3-(4-Cyclohexyloxy-phenyl)-7-((S)-1-phenyl-propyl)-2,3,6,7,8,9-hexahydro-[1,4]dioxino[2,3-g]isoquinoline-8-carbonyl]-amino}-3-[4-(2,3-dimethyl-pyridin-4-yl)-phenyl]-propionic acid]
15 | 22 | CCC(CC)Oc1ccc([C@H]2COc3cc4c(cc3O2)CN([C@@H](CC)c2ccccc2)[C@H](C(=O)N[C@@H](Cc2ccc(-c3ccnc(C)c3C)cc2)C(=O)O)C4)cc1 [Example 166, (S)-3-[4-(2,3-Dimethyl-pyridin-4-yl)-phenyl]-2-{[(3S,8S)-3-[4-(1-ethyl-propoxy)-phenyl]-7-((S)-1-phenyl-propyl)-2,3,6,7,8,9-hexahydro-[1,4]dioxino[2,3-g]isoquinoline-8-carbonyl]-amino}-propionic acid]
16 | 116 | CC[C@@H](c1ccccc1)N1Cc2cc3c(cc2C[C@H]1C(=O)N[C@@H](Cc1ccc(-c2ccnc(C)c2C)cc1)C(=O)O)OC[C@H](c1ccc(OCc2cccnc2)cc1)O3 [Example 169, (S)-3-[4-(2,3-Dimethyl-pyridin-4-yl)-phenyl]-2-({(3S,8S)-7-((S)-1-phenyl-propyl)-3-[4-(pyridin-3-ylmethoxy)-phenyl]-2,3,6,7,8,9-hexahydro-[1,4]dioxino[2,3-g]isoquinoline-8-carbonyl}-amino)-propionic acid]
17 | 538 | CCOc1ccc([C@H]2COc3cc4c(cc3O2)CN([C@@H](CC)c2ccccc2)[C@H](C(=O)N[C@@H](Cc2ccc(-c3ccnc(C)c3C)cc2)C(=O)O)C4)cc1 [Example 170, (S)-3-[4-(2,3-Dimethyl-pyridin-4-yl)-phenyl]-2-{[(3S,8S)-3-(4-ethoxy-phenyl)-7-((S)-1-phenyl-propyl)-2,3,6,7,8,9-hexahydro-[1,4]dioxino[2,3-g]isoquinoline-8-carbonyl]-amino}-propionic acid]
18 | 118 | CC[C@@H](c1ccccc1)N1Cc2cc3c(cc2C[C@H]1C(=O)N[C@@H](Cc1ccc(-c2ccnc(C)c2C)cc1)C(=O)O)OC[C@H](c1ccc(OC2CCCC2)cc1)O3 [Example 171, (S)-2-{[(3S,8S)-3-(4-Cyclopentyloxy-phenyl)-7-((S)-1-phenyl-propyl)-2,3,6,7,8,9-hexahydro-[1,4]dioxino[2,3-g]isoquinoline-8-carbonyl]-amino}-3-[4-(2,3-dimethyl-pyridin-4-yl)-phenyl]-propionic acid]
19 | 5 | Cc1nccc(-c2ccc(C[C@H](NC(=O)[C@@H]3Cc4cc5c(cc4CN3Cc3ccccn3)O[C@@H](c3ccc(OCc4ccc(Cl)c(Cl)c4)cc3)CO5)C(=O)O)cc2)c1C [Example 175, (S)-2-({(3S,8S)-3-[4-(3,4-Dichloro-benzyloxy)-phenyl]-7-pyridin-2-ylmethyl-2,3,6,7,8,9-hexahydro-[1,4]dioxino[2,3-g]isoquinoline-8-carbonyl}-amino)-3-[4-(2,3-dimethyl-pyridin-4-yl)-phenyl]-propionic acid]
